Experiments:
[1] = target: T1, Monoacylglycerol lipase (MAGL) (Mus musculus, UniProt O35678); experiment: competitive ABPP in mouse brain lysate at […] ([…] decrease of MAGL signal); assay type: cell-based
T1 construct: gene Mgll
T1 sequence (O35678 1-303): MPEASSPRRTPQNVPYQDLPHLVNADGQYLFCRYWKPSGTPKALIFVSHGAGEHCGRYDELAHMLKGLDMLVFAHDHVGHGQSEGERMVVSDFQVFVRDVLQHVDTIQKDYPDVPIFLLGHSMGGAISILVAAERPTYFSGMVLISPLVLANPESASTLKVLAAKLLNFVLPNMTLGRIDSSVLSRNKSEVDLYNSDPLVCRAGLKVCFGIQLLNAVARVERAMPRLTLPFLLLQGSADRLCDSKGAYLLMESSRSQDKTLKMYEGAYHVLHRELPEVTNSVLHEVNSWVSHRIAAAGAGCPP

[2] = target: T2, Monoacylglycerol lipase (MAGL) (Homo sapiens, UniProt Q99685); experiment: competitive ABPP in human brain lysate at […] ([…] decrease of MAGL signal); assay type: cell-based
T2 construct: gene MGLL
T2 sequence (Q99685 1-303): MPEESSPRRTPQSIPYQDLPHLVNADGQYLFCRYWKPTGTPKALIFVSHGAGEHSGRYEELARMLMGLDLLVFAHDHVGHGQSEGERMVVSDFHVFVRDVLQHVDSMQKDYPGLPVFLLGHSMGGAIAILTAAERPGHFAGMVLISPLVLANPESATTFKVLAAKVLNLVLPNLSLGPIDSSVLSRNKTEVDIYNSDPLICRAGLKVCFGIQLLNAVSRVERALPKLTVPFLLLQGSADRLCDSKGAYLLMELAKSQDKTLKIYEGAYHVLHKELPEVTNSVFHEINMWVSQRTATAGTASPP

O=C(Oc1ccc([N+](=O)[O-])cc1)N1CCC(C(O)(c2ccc3c(c2)OCO3)c2ccc3c(c2)OCO3)CC1 [JZL 184]
inhibition at 10 µM [1]: 78%
inhibition at 10 µM [2]: 83%

— PMC9462760, “A potent and selective inhibitor for the modulation of MAGL activity in the neurovasculature” (PLoS ONE, 2022)
